Results published in PMC6844396, “Design, synthesis and biological evaluation of novel 1H-1,2,4-triazole, benzothiazole and indazole-based derivatives as potent FGFR1 inhibitors viafragment-based virtual screening” (Journal of Enzyme Inhibition and Medicinal Chemistry, 2019).

Experiments:
FGFR1 = FGFR1 (Homo sapiens, UniProt P11362); assay: ELISA kinase assay, FGFR1; assay type: biochemical; details: for IC50: ELISA, average values from two separate experiments
Procedure: Elisa kinase assay. The effects of the indicated compounds on the activities of receptor tyrosine kinases were determined using enzyme-linked immunosorbent assays (ELISAs) with purified recombinant proteins. Briefly, 20 μg/mL poly (Glu,Tyr)4:1 (Sigma, St Louis, MO, USA) was pre-coated in 96-well plates as a substrate. A 50 μL aliquot of 10 μmol/L ATP solution diluted in kinase reaction buffer (50 mmol/L HEPES [pH 7.4], 50 mmol/L MgCl2, 0.5 mmol/L MnCl2, 0.2 mmol/L Na3VO4, and 1 mmol/L DTT) was added to each well; 1 μL of different compounds with indicated concentration diluted in 1% DMSO (v/v) (Sigma, St Louis, MO, USA) were then added to each reaction well. DMSO (1%, v/v) was used as the negative control. The kinase reaction was initiated by the addition of purified tyrosine kinase proteins (FGFR1, FGFR2, FGFR3, FGFR4, ALK, Bcr-Abl, EPH-A2, Flt-1, RET, c-Src, IGF1R, c-Met, EGFR, ErbB2) diluted in 49 μL of kinase reaction buffer solution. After incubation for 60 min at 37 °C, the plate was washed three times with phosphate-buffered saline (PBS) containing 0.1% Tween 20 (T-PBS). Anti-phosphotyrosine (PY99) antibody (100 μL; 1:500, diluted in 5 mg/mL BSA T-PBS) was then added. After a 30 min incubation at 37 °C, the plate was washed three times, and 100 μL horseradish peroxidase-conjugated goat anti-mouse IgG (1:2000, diluted in 5 mg/mL BSA T-PBS) was added. The plate was then incubated at 37 °C for 30 min and washed 3 times. A 100 μL aliquot of a solution containing 0.03% H2O2 and 2 mg/mL o-phenylenediamine in 0.1 mol/l citrate buffer (pH 5.5) was added. The reaction was terminated by the addition of 50 μL of 2 mol/l H2SO4 as the colour changed, and the plate was analysed using a multi-well spectrophotometer (SpectraMAX 190, Molecular Devices, Sunnyvale, CA, USA) at 490 nm. The inhibition rate (%) was calculated using the following equation: [1-(A490/A490 control)] × 100%. The IC50 values were calculated from the inhibition curves in two separate experiments.

SNU-16 cell = assay: Cell proliferation assay (CCK-8 or MTT), SNU-16; assay type: cell-based, Human; details: Homo sapiens, SNU-16 is FGFR2-amplified cell type, 72 h
Procedure: Human gastric cancer cell line SNU-16 was purchased from American Type Culture Collection (ATCC, Manssas, VA, USA). All the cell lines were routinely maintained in complete medium according to the suppliers’ recommendations.
Cells were seeded in 96-well tissue culture plates. On the day when seeding, the cells were exposed to various concentrations of compounds and further cultured for 72 h at 37 °C. Finally, cell proliferation was determined using Cell Counting Kit (CCK-8) or the thiazolyl blue tetrazolium bromide (MTT, from Sigma-Aldrich, St. Louis, MO, USA) assay. The IC50 values were calculated by concentration–response curve fitting using a SoftMax pro-based four-parameter method.

FGFR2 = FGFR2 (Homo sapiens, UniProt P21802); assay: ELISA kinase assay, FGFR2; assay type: biochemical; details: kinase selectivity panel
Procedure: DMSO (1%, v/v) was used as the negative control. […] Anti-phosphotyrosine (PY99) antibody (100 μL; 1:500, diluted in 5 mg/mL BSA T-PBS) was then added. […] The IC50 values were calculated from the inhibition curves in two separate experiments.

FGFR3 = FGFR3 (Homo sapiens, UniProt P22607); assay: ELISA kinase assay, FGFR3; assay type: biochemical; details: kinase selectivity panel
Procedure: (§1) The kinase profiling of 9 u was conducted using Elisa kinase assay and the Eurofins Kinase Profiler Selectivity Testing Service.
(§2) Elisa kinase assay. The effects of the indicated compounds on the activities of receptor tyrosine kinases were determined using enzyme-linked immunosorbent assays (ELISAs) with purified recombinant proteins. Briefly, 20 μg/mL poly (Glu,Tyr)4:1 (Sigma, St Louis, MO, USA) was pre-coated in 96-well plates as a substrate. A 50 μL aliquot of 10 μmol/L ATP solution diluted in kinase reaction buffer (50 mmol/L HEPES [pH 7.4], 50 mmol/L MgCl2, 0.5 mmol/L MnCl2, 0.2 mmol/L Na3VO4, and 1 mmol/L DTT) was added to each well; 1 μL of different compounds with indicated concentration diluted in 1% DMSO (v/v) (Sigma, St Louis, MO, USA) were then added to each reaction well. DMSO (1%, v/v) was used as the negative control. The kinase reaction was initiated by the addition of purified tyrosine kinase proteins (FGFR1, FGFR2, FGFR3, FGFR4, ALK, Bcr-Abl, EPH-A2, Flt-1, RET, c-Src, IGF1R, c-Met, EGFR, ErbB2) diluted in 49 μL of kinase reaction buffer solution. […] The reaction was terminated by the addition of 50 μL of 2 mol/l H2SO4 as the colour changed, and the plate was analysed using a multi-well spectrophotometer (SpectraMAX 190, Molecular Devices, Sunnyvale, CA, USA) at 490 nm. […] The IC50 values were calculated from the inhibition curves in two separate experiments.

FGFR4 = FGFR4 (Homo sapiens, UniProt P22455); assay: ELISA kinase assay, FGFR4; assay type: biochemical; details: kinase selectivity panel
Procedure: as §1, §2

ALK = ALK (Homo sapiens, UniProt Q9UM73); assay: ELISA kinase assay, ALK; assay type: biochemical; details: kinase selectivity panel
Sequence of ALK (Q9UM73 19-1620, species assumed): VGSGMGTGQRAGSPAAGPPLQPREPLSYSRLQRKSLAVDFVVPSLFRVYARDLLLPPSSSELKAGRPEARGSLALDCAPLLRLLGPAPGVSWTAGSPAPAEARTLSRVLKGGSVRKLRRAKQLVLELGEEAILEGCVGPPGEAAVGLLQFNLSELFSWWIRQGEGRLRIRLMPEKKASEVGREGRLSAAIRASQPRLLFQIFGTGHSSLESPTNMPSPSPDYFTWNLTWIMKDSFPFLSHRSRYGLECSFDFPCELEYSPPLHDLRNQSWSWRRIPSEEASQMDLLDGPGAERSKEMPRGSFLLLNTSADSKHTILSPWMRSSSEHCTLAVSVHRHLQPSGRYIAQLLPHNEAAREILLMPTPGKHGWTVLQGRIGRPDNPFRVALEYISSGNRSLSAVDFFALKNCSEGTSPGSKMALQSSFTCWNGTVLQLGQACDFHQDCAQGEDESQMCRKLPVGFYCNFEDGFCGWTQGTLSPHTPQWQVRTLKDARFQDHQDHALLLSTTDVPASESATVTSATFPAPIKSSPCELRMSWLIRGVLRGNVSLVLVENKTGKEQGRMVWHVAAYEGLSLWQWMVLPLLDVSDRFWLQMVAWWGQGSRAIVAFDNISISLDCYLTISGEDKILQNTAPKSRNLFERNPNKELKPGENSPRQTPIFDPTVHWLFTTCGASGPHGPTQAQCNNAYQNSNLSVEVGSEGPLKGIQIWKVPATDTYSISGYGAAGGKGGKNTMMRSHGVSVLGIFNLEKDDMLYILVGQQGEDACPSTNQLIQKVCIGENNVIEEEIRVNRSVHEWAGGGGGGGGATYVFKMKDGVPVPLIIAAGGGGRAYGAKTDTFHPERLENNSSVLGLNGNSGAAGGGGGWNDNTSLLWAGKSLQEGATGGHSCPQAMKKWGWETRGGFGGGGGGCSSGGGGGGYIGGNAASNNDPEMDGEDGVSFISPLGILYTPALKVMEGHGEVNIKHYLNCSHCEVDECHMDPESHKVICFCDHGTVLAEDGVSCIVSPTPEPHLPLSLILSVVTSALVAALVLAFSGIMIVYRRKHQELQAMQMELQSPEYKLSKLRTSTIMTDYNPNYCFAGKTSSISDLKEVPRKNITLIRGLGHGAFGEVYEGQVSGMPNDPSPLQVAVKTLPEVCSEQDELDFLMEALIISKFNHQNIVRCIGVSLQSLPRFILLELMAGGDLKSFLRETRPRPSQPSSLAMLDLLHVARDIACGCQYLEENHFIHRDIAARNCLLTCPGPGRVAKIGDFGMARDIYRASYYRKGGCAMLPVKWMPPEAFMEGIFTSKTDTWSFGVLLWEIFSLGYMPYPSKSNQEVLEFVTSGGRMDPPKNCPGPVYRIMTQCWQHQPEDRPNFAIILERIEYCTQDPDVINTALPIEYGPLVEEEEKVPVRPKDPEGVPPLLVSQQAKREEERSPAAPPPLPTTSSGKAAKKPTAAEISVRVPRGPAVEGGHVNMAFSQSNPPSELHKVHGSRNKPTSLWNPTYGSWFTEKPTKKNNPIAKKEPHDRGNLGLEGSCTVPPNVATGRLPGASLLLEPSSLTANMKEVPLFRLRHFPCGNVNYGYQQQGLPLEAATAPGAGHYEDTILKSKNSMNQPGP
Procedure: as §1, §2

Bcr-Abl = Bcr-Abl (Homo sapiens, UniProt P00519); assay: ELISA kinase assay, Bcr-Abl; assay type: biochemical; details: kinase selectivity panel
Sequence of Bcr-Abl (P00519 27-1130): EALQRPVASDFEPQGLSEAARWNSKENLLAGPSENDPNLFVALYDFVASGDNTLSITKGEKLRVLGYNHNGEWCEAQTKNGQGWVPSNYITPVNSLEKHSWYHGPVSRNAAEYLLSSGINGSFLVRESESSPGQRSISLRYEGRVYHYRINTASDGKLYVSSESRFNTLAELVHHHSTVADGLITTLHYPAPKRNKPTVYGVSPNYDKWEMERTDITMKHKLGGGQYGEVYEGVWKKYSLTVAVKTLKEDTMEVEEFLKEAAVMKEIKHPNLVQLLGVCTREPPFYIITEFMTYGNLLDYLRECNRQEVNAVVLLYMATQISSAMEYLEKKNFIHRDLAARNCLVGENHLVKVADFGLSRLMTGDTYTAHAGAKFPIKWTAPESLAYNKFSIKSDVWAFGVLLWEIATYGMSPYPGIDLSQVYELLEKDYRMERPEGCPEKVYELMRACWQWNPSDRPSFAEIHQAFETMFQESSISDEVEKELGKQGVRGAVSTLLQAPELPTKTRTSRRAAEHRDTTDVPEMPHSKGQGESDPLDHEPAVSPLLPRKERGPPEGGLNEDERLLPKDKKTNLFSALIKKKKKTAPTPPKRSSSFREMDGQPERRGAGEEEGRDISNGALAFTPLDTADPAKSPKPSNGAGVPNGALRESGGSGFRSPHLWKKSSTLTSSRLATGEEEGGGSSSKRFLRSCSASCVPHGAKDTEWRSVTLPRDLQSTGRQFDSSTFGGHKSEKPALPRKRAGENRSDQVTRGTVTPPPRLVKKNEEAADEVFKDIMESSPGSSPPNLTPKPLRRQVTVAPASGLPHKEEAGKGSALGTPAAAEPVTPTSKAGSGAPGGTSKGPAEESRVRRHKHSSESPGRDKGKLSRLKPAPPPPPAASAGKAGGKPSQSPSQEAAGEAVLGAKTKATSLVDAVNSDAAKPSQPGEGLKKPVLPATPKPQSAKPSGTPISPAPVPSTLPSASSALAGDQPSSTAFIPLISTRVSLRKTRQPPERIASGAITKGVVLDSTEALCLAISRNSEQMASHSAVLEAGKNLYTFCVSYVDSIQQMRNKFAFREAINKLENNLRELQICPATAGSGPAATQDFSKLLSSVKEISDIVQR
Sequence of Bcr-Abl (P11274 1-927 partner): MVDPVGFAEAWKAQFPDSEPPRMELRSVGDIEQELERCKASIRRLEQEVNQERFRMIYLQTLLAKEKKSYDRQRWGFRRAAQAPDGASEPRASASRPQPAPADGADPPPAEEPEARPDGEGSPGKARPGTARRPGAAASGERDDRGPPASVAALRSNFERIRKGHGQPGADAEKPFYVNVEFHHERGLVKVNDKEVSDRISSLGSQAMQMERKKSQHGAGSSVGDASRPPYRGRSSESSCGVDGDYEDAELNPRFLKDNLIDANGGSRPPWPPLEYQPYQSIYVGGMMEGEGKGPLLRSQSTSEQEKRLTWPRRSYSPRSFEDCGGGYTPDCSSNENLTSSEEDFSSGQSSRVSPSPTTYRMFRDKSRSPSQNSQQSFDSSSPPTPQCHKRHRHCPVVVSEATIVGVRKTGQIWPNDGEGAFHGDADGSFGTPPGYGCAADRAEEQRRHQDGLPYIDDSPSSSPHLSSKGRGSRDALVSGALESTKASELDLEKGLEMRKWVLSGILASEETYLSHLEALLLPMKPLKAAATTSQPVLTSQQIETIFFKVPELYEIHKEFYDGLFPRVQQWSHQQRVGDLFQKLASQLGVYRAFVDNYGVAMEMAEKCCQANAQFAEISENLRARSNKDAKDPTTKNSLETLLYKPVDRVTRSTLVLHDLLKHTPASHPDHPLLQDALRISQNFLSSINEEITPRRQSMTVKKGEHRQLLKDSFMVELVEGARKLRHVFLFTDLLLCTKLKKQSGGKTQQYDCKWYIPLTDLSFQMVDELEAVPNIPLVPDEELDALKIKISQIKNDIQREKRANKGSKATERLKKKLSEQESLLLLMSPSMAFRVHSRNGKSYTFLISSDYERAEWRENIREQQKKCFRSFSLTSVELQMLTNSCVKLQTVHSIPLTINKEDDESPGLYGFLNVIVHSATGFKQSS
Procedure: as §1, §2

EPH-A2 = EPH-A2 (Homo sapiens, UniProt P29317); assay: ELISA kinase assay, EPH-A2; assay type: biochemical; details: kinase selectivity panel
Procedure: as §1, §2

Flt-1 = Flt-1 (Homo sapiens, UniProt P17948); assay: ELISA kinase assay, Flt-1; assay type: biochemical; details: kinase selectivity panel
Procedure: as §1, §2

RET = RET (Homo sapiens, UniProt P07949); assay: ELISA kinase assay, RET; assay type: biochemical; details: kinase selectivity panel
Procedure: as §1, §2

c-Src = c-Src (Homo sapiens, UniProt P12931); assay: ELISA kinase assay, c-Src; assay type: biochemical; details: kinase selectivity panel
Sequence of c-Src (P12931 whole entry, species assumed): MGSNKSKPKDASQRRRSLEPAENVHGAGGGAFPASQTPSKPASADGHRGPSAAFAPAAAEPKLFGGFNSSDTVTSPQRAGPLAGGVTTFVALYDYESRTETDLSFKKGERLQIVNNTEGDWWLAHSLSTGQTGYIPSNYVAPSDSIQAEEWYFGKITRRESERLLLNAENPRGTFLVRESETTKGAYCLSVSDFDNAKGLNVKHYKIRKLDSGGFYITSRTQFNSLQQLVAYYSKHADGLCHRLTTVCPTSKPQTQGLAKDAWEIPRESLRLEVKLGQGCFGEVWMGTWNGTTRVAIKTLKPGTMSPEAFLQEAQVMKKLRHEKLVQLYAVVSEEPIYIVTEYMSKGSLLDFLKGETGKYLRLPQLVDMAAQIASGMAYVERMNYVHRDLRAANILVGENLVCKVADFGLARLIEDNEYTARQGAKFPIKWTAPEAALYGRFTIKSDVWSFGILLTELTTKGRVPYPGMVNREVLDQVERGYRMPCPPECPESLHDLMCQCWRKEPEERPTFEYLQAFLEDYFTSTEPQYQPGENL
Procedure: as §1, §2

IGF1R = IGF1R (Homo sapiens, UniProt P08069); assay: ELISA kinase assay, IGF1R; assay type: biochemical; details: kinase selectivity panel
Procedure: as §1, §2

c-Met = c-Met (Homo sapiens, UniProt P08581); assay: ELISA kinase assay, c-Met; assay type: biochemical; details: kinase selectivity panel
Procedure: as §1, §2

EGFR = EGFR (Homo sapiens, UniProt P00533); assay: ELISA kinase assay, EGFR; assay type: biochemical; details: kinase selectivity panel
Procedure: as §1, §2

ErbB2 = ErbB2 (Homo sapiens, UniProt P04626); assay: ELISA kinase assay, ErbB2; assay type: biochemical; details: kinase selectivity panel
Procedure: as §1, §2

Sequence of FGFR1 (P11362 22-822): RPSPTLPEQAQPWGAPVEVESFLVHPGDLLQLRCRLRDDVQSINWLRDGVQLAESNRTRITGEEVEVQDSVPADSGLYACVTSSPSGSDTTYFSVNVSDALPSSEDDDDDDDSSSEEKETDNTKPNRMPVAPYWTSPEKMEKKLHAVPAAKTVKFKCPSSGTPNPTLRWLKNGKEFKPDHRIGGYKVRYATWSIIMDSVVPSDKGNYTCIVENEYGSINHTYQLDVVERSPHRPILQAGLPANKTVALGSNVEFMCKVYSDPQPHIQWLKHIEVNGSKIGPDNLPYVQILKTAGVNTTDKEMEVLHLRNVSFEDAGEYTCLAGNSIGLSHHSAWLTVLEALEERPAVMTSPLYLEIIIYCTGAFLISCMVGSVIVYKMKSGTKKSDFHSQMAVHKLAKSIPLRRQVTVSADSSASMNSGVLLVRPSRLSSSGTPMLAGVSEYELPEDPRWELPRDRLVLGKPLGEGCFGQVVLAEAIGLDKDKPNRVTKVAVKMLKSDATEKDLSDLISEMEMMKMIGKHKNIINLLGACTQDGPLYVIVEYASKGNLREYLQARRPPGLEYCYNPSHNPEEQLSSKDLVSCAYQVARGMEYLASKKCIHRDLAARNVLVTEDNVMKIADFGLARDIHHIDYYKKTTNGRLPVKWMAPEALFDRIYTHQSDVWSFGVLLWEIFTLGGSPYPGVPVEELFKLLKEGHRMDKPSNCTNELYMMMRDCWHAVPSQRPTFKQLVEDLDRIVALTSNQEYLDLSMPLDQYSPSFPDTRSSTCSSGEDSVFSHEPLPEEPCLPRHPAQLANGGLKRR

| Structure (SMILES) | IC50 (FGFR1) | melting point | IC50 (SNU-16 cell; Table 2) | also measured |
| --- | --- | --- | --- | --- |
| CN1CCN(c2ccc(C(=O)Nc3n[nH]c(CCc4ccccc4)n3)cc2)CC1 [18a, 4–(4-methylpiperazin-1-yl)-N-(5-phenethyl-1H-1,2,4-triazol-3-yl)benzamide] | > 1000 nM | 218.1 to 222.5 °C | – | IC50 (SNU-16 cell; Table 1): > 5000 nM |
| COc1cccc(-c2ccc3nc(NC(=O)c4ccc(N5CCN(C)CC5)cc4)sc3c2)c1 [12a, N-(6–(3-methoxyphenyl)benzo[d]thiazol-2-yl)-4–(4-methylpiperazin-1-yl) benzamide] | > 1000 nM | 230.5 to 233.2 °C | – | IC50 (SNU-16 cell; Table 1): > 5000 nM |
| COc1cc(F)cc(-c2ccc3c(NC(=O)c4ccc(N5CCCN(C)CC5)cc4)n[nH]c3c2)c1 [9w, N-(6–(3-fluoro-5-methoxyphenyl)-1H-indazol-3-yl)-4–(4-methyl-1,4-diazepan-1-yl)benzamide] | 3.3 nM | 230.4 to 234.6 °C | – | IC50 (SNU-16 cell; Table 3): 557 nM |
| CCN1CCN(c2ccc(C(=O)Nc3n[nH]c4cc(-c5c(C)cccc5C)ccc34)cc2)CC1 [9q, N-(6–(2,6-dimethylphenyl)-1H-indazol-3-yl)-4–(4-ethylpiperazin-1-yl)benzamide] | 41.7 nM | 235.7 to 239.2 °C | 856 nM | – |
| CCN1CCN(c2ccc(C(=O)Nc3n[nH]c4cc(-c5ccc(Cl)c(Cl)c5)ccc34)cc2)CC1 [9n, N-(6–(3,4-dichlorophenyl)-1H-indazol-3-yl)-4–(4-ethylpiperazin-1-yl)benzamide] | > 1000 nM | 224.9 to 228 °C | > 5000 nM | – |
| CCN1CCN(c2ccc(C(=O)Nc3n[nH]c4cc(-c5cccc(Cl)c5Cl)ccc34)cc2)CC1 [9m, N-(6–(2,3-dichlorophenyl)-1H-indazol-3-yl)-4–(4-ethylpiperazin-1-yl)benzamide] | 44.8 nM | 220.1 to 222.4 °C | 1180 nM | – |
| COc1cc(F)cc(-c2ccc3c(NC(=O)c4ccc(N5CCC(N(C)C)CC5)cc4)n[nH]c3c2)c1 [9u, 4–(4-(dimethylamino)piperidin-1-yl)-N-(6–(3-fluoro-5-methoxyphenyl)-1H-indazol-3-yl)benzamide] | 3.3 nM | 223.8 to 227.4 °C | – | enhancement of FGFR1 inhibitory activity (FGFR1; compared with 9o): 1.5 fold; IC50 (SNU-16 cell; Table 3): 468 nM; IC50 (FGFR2): 5.2 nM; IC50 (FGFR3): 12.2 nM; IC50 (FGFR4): > 1000 nM; IC50 (ALK): > 1000 nM; IC50 (Bcr-Abl): > 1000 nM; IC50 (EPH-A2): > 1000 nM; IC50 (Flt-1): > 100 nM; IC50 (RET): > 100 nM; IC50 (c-Src): > 100 nM; IC50 (IGF1R): > 1000 nM; IC50 (c-Met): > 1000 nM; IC50 (EGFR): > 1000 nM; IC50 (ErbB2): > 1000 nM |
| CCN1CCN(c2ccc(C(=O)Nc3n[nH]c4cc(-c5ccc(C)c(OC)c5)ccc34)cc2)CC1 [9i, 4–(4-ethylpiperazin-1-yl)-N-(6–(3-methoxy-4-methylphenyl)-1H-indazol-3-yl) benzamide] | > 1000 nM | 227.3 to 231.2 °C | > 5000 nM | – |
